ChEMBL document CHEMBL3885861, “Open TG-GATES”

Organism: Rattus norvegicus
Experiment: Open TG-GATES - Regimen: Daily Repeat
Type: toxicity, organism-based, Sprague-Dawley
Design: regimen Daily Repeat, gender Male, age 6 weeks
Details: in vivo, po, route gavage; for APTT / Bas / Eos / Fbg / Hb / Ht / Lym / MCH / MCHC / MCV / Mono / Neu / PT / Plat / RBC / Ret / WBC: tissue Blood; for KIDNEY_L / KIDNEY_R / KIDNEY_TOTAL: tissue Kidney; for LIVER: tissue Liver; for A/G / ALP / ALT / AST / BUN / CRE / Ca / Cl / DBIL / GLC / IP / K / LDH / Na / PL / RALB / TBIL / TC / TG / TP / gamma-GTP: tissue Plasma
[1] = 100 mg/kg, 72 h, dose level Middle, time 3 day
[2] = 100 mg/kg, […], dose level Middle, time 7 day
[3] = 100 mg/kg, […], dose level Middle, time 14 day
[4] = 100 mg/kg, […], dose level Middle, time 28 day
[5] = 200 mg/kg, 72 h, dose level High, time 3 day
[6] = 200 mg/kg, […], dose level High, time 7 day
[7] = 200 mg/kg, […], dose level High, time 14 day
[8] = 200 mg/kg, […], dose level High, time 28 day

## NNC(=O)c1ccncc1 [ISONIAZID]
[1]
  TERMINAL_BW: 217.2 g
  APTT: 15.8 s
  Bas: 0%
  Eos: 0.6%
  Fbg: 245.2 mg/dL
  Hb: 13.4 g/dL
  Ht: 40.2%
  Lym: 82.2%
  MCH: 21.8 pg
  MCHC: 33.4%
  MCV: 65.2 fL
  Mono: 5%
  Neu: 12.2%
  PT: 12.1 s
  Plat: 115.4 x10_4/uL
  RBC: 616.6 x10_4/ul
  Ret: 7.3%
  WBC: 87 x10_2/uL
  KIDNEY_L: 1.1 g
  KIDNEY_R: 1.1 g
  KIDNEY_TOTAL: 2.1 g
  LIVER: 11.5 g
  A/G: 1.7
  ALP: 962 IU/L
  ALT: 18.6 IU/L
  AST: 55 IU/L
  BUN: 17.2 mg/dL
  CRE: 0.5 mg/dL
  Ca: 10.9 mg/dL
  Cl: 103.4 meq/L
  DBIL: 0.014 mg/dL
  GLC: 204.2 mg/dL
  IP: 8.6 mg/dL
  K: 5 meq/L
  LDH: 93.4 IU/L
  Na: 140.6 meq/L
  PL: 158.6 mg/dL
  RALB: 3.7 g/dL
  TBIL: 0.3 mg/dL
  TC: 81.4 mg/dL
  TG: 104.6 mg/dL
  TP: 6 g/dL
  gamma-GTP: 1 IU/L
[2]
  TERMINAL_BW: 244.8 g
  APTT: 16.2 s
  Bas: 0%
  Eos: 1%
  Fbg: 234.8 mg/dL
  Hb: 13.6 g/dL
  Ht: 40.6%
  Lym: 84.2%
  MCH: 21.2 pg
  MCHC: 33.5%
  MCV: 63.2 fL
  Mono: 6.6%
  Neu: 8.8%
  PT: 12.2 s
  Plat: 121.4 x10_4/uL
  RBC: 641.8 x10_4/ul
  Ret: 6.3%
  WBC: 150.1 x10_2/uL
  KIDNEY_L: 1.1 g
  KIDNEY_R: 1.1 g
  KIDNEY_TOTAL: 2.2 g
  LIVER: 11.5 g
  A/G: 1.6
  ALP: 823.2 IU/L
  ALT: 15.4 IU/L
  AST: 56.6 IU/L
  BUN: 18.4 mg/dL
  CRE: 0.5 mg/dL
  Ca: 10.3 mg/dL
  Cl: 105.4 meq/L
  DBIL: 0.052 mg/dL
  GLC: 215.4 mg/dL
  IP: 8.4 mg/dL
  K: 4.9 meq/L
  LDH: 92.2 IU/L
  Na: 139.4 meq/L
  PL: 134.8 mg/dL
  RALB: 3.6 g/dL
  TBIL: 0.3 mg/dL
  TC: 70.4 mg/dL
  TG: 91.6 mg/dL
  TP: 5.9 g/dL
  gamma-GTP: 1 IU/L
[3]
  TERMINAL_BW: 283.5 g
  APTT: 15.7 s
  Bas: 0%
  Eos: 0.8%
  Fbg: 221.4 mg/dL
  Hb: 13.9 g/dL
  Ht: 41.4%
  Lym: 83.4%
  MCH: 19.7 pg
  MCHC: 33.6%
  MCV: 58.6 fL
  Mono: 4.6%
  Neu: 10.8%
  PT: 12.1 s
  Plat: 125.3 x10_4/uL
  RBC: 706.6 x10_4/ul
  Ret: 5.1%
  WBC: 172.6 x10_2/uL
  KIDNEY_L: 1.2 g
  KIDNEY_R: 1.2 g
  KIDNEY_TOTAL: 2.5 g
  LIVER: 12.7 g
  A/G: 1.7
  ALP: 722 IU/L
  ALT: 11.8 IU/L
  AST: 53.4 IU/L
  BUN: 19.6 mg/dL
  CRE: 0.5 mg/dL
  Ca: 10.4 mg/dL
  Cl: 106 meq/L
  DBIL: 0.04 mg/dL
  GLC: 217.2 mg/dL
  IP: 8 mg/dL
  K: 5.1 meq/L
  LDH: 92 IU/L
  Na: 138.6 meq/L
  PL: 140.4 mg/dL
  RALB: 3.8 g/dL
  TBIL: 0.4 mg/dL
  TC: 70 mg/dL
  TG: 94.8 mg/dL
  TP: 6.1 g/dL
  gamma-GTP: 1 IU/L
[4]
  TERMINAL_BW: 361.7 g
  APTT: 16.3 s
  Bas: 0%
  Eos: 1.4%
  Fbg: 227.4 mg/dL
  Hb: 14.4 g/dL
  Ht: 42.8%
  Lym: 80.6%
  MCH: 18.6 pg
  MCHC: 33.8%
  MCV: 55 fL
  Mono: 3.6%
  Neu: 14.4%
  PT: 12.2 s
  Plat: 119.2 x10_4/uL
  RBC: 780 x10_4/ul
  Ret: 2.9%
  WBC: 151.6 x10_2/uL
  KIDNEY_L: 1.4 g
  KIDNEY_R: 1.5 g
  KIDNEY_TOTAL: 2.9 g
  LIVER: 15.3 g
  A/G: 1.4
  ALP: 589.6 IU/L
  ALT: 11.6 IU/L
  AST: 55.2 IU/L
  BUN: 20.2 mg/dL
  CRE: 0.5 mg/dL
  Ca: 10 mg/dL
  Cl: 104.6 meq/L
  DBIL: 0.024 mg/dL
  GLC: 222.6 mg/dL
  IP: 6.9 mg/dL
  K: 4.5 meq/L
  LDH: 75.8 IU/L
  Na: 140.6 meq/L
  PL: 141.8 mg/dL
  RALB: 3.6 g/dL
  TBIL: 0.2 mg/dL
  TC: 68.6 mg/dL
  TG: 105.4 mg/dL
  TP: 6.2 g/dL
  gamma-GTP: 1 IU/L
[5]
  TERMINAL_BW: 211.3 g
  APTT: 15.3 s
  Bas: 0%
  Eos: 0.8%
  Fbg: 228.6 mg/dL
  Hb: 13.5 g/dL
  Ht: 40.4%
  Lym: 78.4%
  MCH: 21.5 pg
  MCHC: 33.5%
  MCV: 64.1 fL
  Mono: 4.6%
  Neu: 16%
  PT: 12 s
  Plat: 140.8 x10_4/uL
  RBC: 629.8 x10_4/ul
  Ret: 6.5%
  WBC: 96.9 x10_2/uL
  KIDNEY_L: 1 g
  KIDNEY_R: 1.1 g
  KIDNEY_TOTAL: 2.1 g
  LIVER: 10.5 g
  A/G: 1.9
  ALP: 722.8 IU/L
  ALT: 10.6 IU/L
  AST: 44.4 IU/L
  BUN: 19 mg/dL
  CRE: 0.5 mg/dL
  Ca: 10.6 mg/dL
  Cl: 104.8 meq/L
  DBIL: 0.006 mg/dL
  GLC: 209.6 mg/dL
  IP: 7.6 mg/dL
  K: 5.1 meq/L
  LDH: 95.8 IU/L
  Na: 140.2 meq/L
  PL: 140.6 mg/dL
  RALB: 3.8 g/dL
  TBIL: 0.3 mg/dL
  TC: 78.6 mg/dL
  TG: 63 mg/dL
  TP: 5.8 g/dL
  gamma-GTP: 1.4 IU/L
[6]
  TERMINAL_BW: 228.8 g
  APTT: 16.3 s
  Bas: 0%
  Eos: 0.6%
  Fbg: 236.4 mg/dL
  Hb: 13.6 g/dL
  Ht: 40.5%
  Lym: 81.4%
  MCH: 20 pg
  MCHC: 33.5%
  MCV: 59.7 fL
  Mono: 4.6%
  Neu: 13.2%
  PT: 12.1 s
  Plat: 138 x10_4/uL
  RBC: 678.2 x10_4/ul
  Ret: 4.7%
  WBC: 126.4 x10_2/uL
  KIDNEY_L: 1.2 g
  KIDNEY_R: 1.2 g
  KIDNEY_TOTAL: 2.3 g
  LIVER: 11.1 g
  A/G: 1.6
  ALP: 757.4 IU/L
  ALT: 8.6 IU/L
  AST: 46.8 IU/L
  BUN: 16.2 mg/dL
  CRE: 0.5 mg/dL
  Ca: 10.4 mg/dL
  Cl: 105 meq/L
  DBIL: 0.028 mg/dL
  GLC: 212.2 mg/dL
  IP: 8 mg/dL
  K: 5.1 meq/L
  LDH: 77.6 IU/L
  Na: 140.6 meq/L
  PL: 127.8 mg/dL
  RALB: 3.8 g/dL
  TBIL: 0.3 mg/dL
  TC: 64.4 mg/dL
  TG: 62.2 mg/dL
  TP: 6.1 g/dL
  gamma-GTP: 1.2 IU/L
[7]
  TERMINAL_BW: 255.7 g
  APTT: 16.2 s
  Bas: 0%
  Eos: 1.2%
  Fbg: 212.8 mg/dL
  Hb: 13.3 g/dL
  Ht: 39.7%
  Lym: 73.4%
  MCH: 18.9 pg
  MCHC: 33.6%
  MCV: 56.2 fL
  Mono: 5.8%
  Neu: 19.8%
  PT: 12.3 s
  Plat: 134 x10_4/uL
  RBC: 707.4 x10_4/ul
  Ret: 5.4%
  WBC: 130.8 x10_2/uL
  KIDNEY_L: 1.2 g
  KIDNEY_R: 1.2 g
  KIDNEY_TOTAL: 2.3 g
  LIVER: 12.1 g
  A/G: 1.7
  ALP: 587.6 IU/L
  ALT: 8.8 IU/L
  AST: 48.4 IU/L
  BUN: 20.4 mg/dL
  CRE: 0.6 mg/dL
  Ca: 10.3 mg/dL
  Cl: 106.8 meq/L
  DBIL: 0.004 mg/dL
  GLC: 210.8 mg/dL
  IP: 7.8 mg/dL
  K: 5.1 meq/L
  LDH: 123.4 IU/L
  Na: 139.8 meq/L
  PL: 123.2 mg/dL
  RALB: 3.7 g/dL
  TBIL: 0.3 mg/dL
  TC: 60.2 mg/dL
  TG: 61.8 mg/dL
  TP: 5.9 g/dL
  gamma-GTP: 0.2 IU/L
[8]
  TERMINAL_BW: 314.6 g
  APTT: 15.9 s
  Bas: 0%
  Eos: 0.8%
  Fbg: 226.2 mg/dL
  Hb: 13 g/dL
  Ht: 39%
  Lym: 84.2%
  MCH: 16.6 pg
  MCHC: 33.2%
  MCV: 50 fL
  Mono: 5.5%
  Neu: 9.2%
  PT: 12.2 s
  Plat: 130.1 x10_4/uL
  RBC: 781.8 x10_4/ul
  Ret: 3.8%
  WBC: 181.2 x10_2/uL
  KIDNEY_L: 1.4 g
  KIDNEY_R: 1.4 g
  KIDNEY_TOTAL: 2.8 g
  LIVER: 12.6 g
  A/G: 1.6
  ALP: 533 IU/L
  ALT: 6.8 IU/L
  AST: 49.8 IU/L
  BUN: 19.5 mg/dL
  CRE: 0.6 mg/dL
  Ca: 9.9 mg/dL
  Cl: 106 meq/L
  DBIL: 0.0525 mg/dL
  GLC: 212.5 mg/dL
  IP: 6.7 mg/dL
  K: 4.9 meq/L
  LDH: 81.2 IU/L
  Na: 140.8 meq/L
  PL: 108.2 mg/dL
  RALB: 3.6 g/dL
  TBIL: 0.2 mg/dL
  TC: 53.8 mg/dL
  TG: 41.8 mg/dL
  TP: 5.8 g/dL
  gamma-GTP: 1.5 IU/L
